Experimental data: patent US8765776B2, “Antihypertensive pharmaceutical composition” (Boryung Pharmaceutical Co., Ltd., priority 2011, dated 2014)
Structures can show the parent of a compound that is named as a salt.

Experiments:
[1] = system: spontaneously hypertensive rats (SHR); test: 4-week repeated oral administration antihypertensive test in spontaneously hypertensive rats (non-invasive tail-cuff CODA-6); assay type: in vivo, rat; conditions: 4 weeks; for Antihypertensive degree with consecutive 4-week administration of drugs, as compared to blood pressure prior to administration (Mean): n=8, F1 = Fimasartan potassium trihydrate 3 mg/kg, F2 = 10 mg/kg, L = Losartan potassium 10 mg/kg, V = Valsartan 10 mg/kg, A1 = Amlodipine besylate 0.5 mg/kg, A2 = 1.6 mg/kg
Text: This study is intended to examine antihypertensive action of individual drugs. For this purpose, test drugs, i.e., Fimasartan potassium trihydrate, Losartan potassium salt, Valsartan, Amlodipine besylate, a combination of Fimasartan potassium trihydrate with Amlodipine besylate, a combination of Losartan potassium salt with Amlodipine besylate, and a combination of Valsartan with Amlodipine besylate were repeatedly and orally administered for 4 weeks to rats with essential hypertension. […] In this manner, the antihypertensive action was compared and evaluated between the individual drugs.
8-week old male spontaneously hypertensive rats (SHR), weighing 230 to 250 g, were purchased from Charles River Japan (CRJ). The animals were used in the test, after being subjected to an acclimation period until the animals were 18 to 19-week old (340 to 380 g) to reach a mean blood pressure of 160 to 170 mmHg. Animals with a good condition were selected by minute observation over the acclimation period prior to the test, and divided into individual test groups, each consisting of 8 animals (n=8). Only the selected animals, from which a rise in blood pressure was confirmed using a non-invasive blood pressure monitoring system (CODA-6), were assigned to the test group.
Low, medium and high doses of the drugs according to individual drugs were established in the preliminary test. […] All the doses referred to those used in the already performed test. Doses and drug-administered groups used in the final main test are as follows.
As an ARB compound, Losartan potassium salt, Valsartan and Fimasartan potassium trihydrate were respectively purchased and used from Zhejiang Huahai Pharmaceutical Co., Ltd. 10 mg/kg of Losartan potassium salt was taken as an L group, and 10 mg/kg of Valsartan was taken as a V group. With regard to Fimasartan potassium trihydrate, 3 mg/kg was taken as an F1 group, and 10 mg/kg was taken as an F2 group.
As a calcium channel blocker, Amlodipine besylate (home-made by the method described in U.S. Pat. No. 4,572,909) was used. 0.5 mg/kg of Amlodipine besylate was taken as an A 1 group, and a dose of 1.6 mg/kg was taken as an A2 group. The test materials and the comparative drugs were each suspended in 0.5% carboxymethylcellulose sodium salt (CMC—Na, Sigma) prior to using. As a control group, 0.5% CMC alone was administered.
{circumflex over (3)} Test Method • Administration: Upon carrying out the administration, the drug preparation was heated to a suitable temperature of 35° in a water bath, followed by forced oral administration of 5 mL/kg via a stomach sonde. • Measurement of blood pressure: Blood pressure of rats was measured as follows. Rats were restrained and placed in a heating device which was then heated to a temperature of about 40° (based on the temperature of 37° in a restraining cage) over 13 minutes, such that the tail blood vessels were engorged, and the blood pressure of rats was measured using CODA-6 equipment that monitors a blood pressure by means of the software of the main body through a pair of cuffs attached to the tail. The non-invasive blood pressure measuring method via CODA-6 (Kent Scientific Corporation) enables a long-term blood pressure measuring test that should involve repeated administration of test materials, which is not feasible with a direct blood pressure measuring method through arterial cannulation, such as conventionally used physiograph or power lab.
Changes in blood pressure were confirmed with focusing on changes in mean arterial pressure (MAP), and changes in diastolic and systolic blood pressure, heart rate, and body weight were used as references for other changes in the experimental results.

[2] = system: patients with mild to moderate essential hypertension; conditions: Week 12 of drug administration, dose 60 mg to 120 mg; cited from earlier work

SMILES | Antihypertensive degree with consecutive 4-week administration of drugs, as compared to blood pressure prior to administration (Mean) [1] | further results
CCOC(=O)C1=C(COCCN)NC(C)=C(C(=O)OC)C1c1ccccc1Cl (single isomer, unassigned) [Comparative Example 5, Amlodipine besylate] | −13 mmHg | –
CCOC(=O)C1=C(COCCN)NC(C)=C(C(=O)OC)C1c1ccccc1Cl (single isomer, unassigned) [Comparative Example 6, Amlodipine besylate] | −20 mmHg | –
CCCCc1nc(C)c(CC(=S)N(C)C)c(=O)n1Cc1ccc(-c2ccccc2-c2nnn[nH]2)cc1 [Comparative Example 1, Fimasartan potassium trihydrate] | – | Antihypertensive effect compared to Comparative Example 3 and Comparative Example 4 ([1]; 3 mg/kg Fimasartan potassium trihydrate vs 10 mg/kg Losartan potassium or Valsartan): superior antihypertensive effect; Antihypertensive degree with consecutive 4-week administration of drugs, as compared to blood pressure prior to administration (Mean) ([1]; potassium trihydrate): −35 mmHg
CCCCc1nc(C)c(CC(=S)N(C)C)c(=O)n1Cc1ccc(-c2ccccc2-c2nnn[nH]2)cc1 [Comparative Example 2, Fimasartan potassium trihydrate] | – | Antihypertensive degree with consecutive 4-week administration of drugs, as compared to blood pressure prior to administration (Mean) ([1]; potassium trihydrate): −50 mmHg
CCCCc1nc(Cl)c(CO)n1Cc1ccc(-c2ccccc2-c2nn[nH]n2)cc1 [Comparative Example 3, Losartan potassium salt] | −20 mmHg | –
CCCCC(=O)N(Cc1ccc(-c2ccccc2-c2nnn[nH]2)cc1)[C@H](C(=O)O)C(C)C [Comparative Example 4, Valsartan] | −32 mmHg | –
CCCCc1nc(Cl)c(CO)n1Cc1ccc(-c2ccccc2-c2nn[nH]n2)cc1 [Losartan] | – | Change in diastolic blood pressure (DBP) in the sitting position relative to baseline [2]: −8.56±7.72 mmHg
